Each structure is given as a SMILES string. The source made the active and inactive calls. The calls are words filed in the database; no cut-off is given here.

Results on 21 compounds are retold here after ChEMBL document CHEMBL1152274, “Discovery of potent and selective agonists for the free fatty acid receptor 1 (FFA(1)/GPR40), a potential target for the treatment of type II diabetes” (J Med Chem, 2008).

The target of assay [1] is T1, Free fatty acid receptor 1 (Homo sapiens, UniProt O14842). Briefly: Agonist activity at human FFA1 expressed in human 1321N1 cells by calcium fluorescence assay relative to 3-(4-(benzyloxy)phenyl)propionic acid. The class given is functional, cell-based.
T1 sequence (O14842 whole entry): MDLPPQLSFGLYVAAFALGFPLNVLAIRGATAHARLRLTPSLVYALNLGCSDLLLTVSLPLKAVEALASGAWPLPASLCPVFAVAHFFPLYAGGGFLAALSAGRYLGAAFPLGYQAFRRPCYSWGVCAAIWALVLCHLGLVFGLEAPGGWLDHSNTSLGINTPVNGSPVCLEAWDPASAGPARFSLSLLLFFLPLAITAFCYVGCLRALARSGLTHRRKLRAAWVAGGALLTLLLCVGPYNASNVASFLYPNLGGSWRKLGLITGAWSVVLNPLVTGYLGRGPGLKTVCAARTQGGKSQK
Assay [2] has as its target T2, Free fatty acid receptor 2 (Homo sapiens) (UniProt O15552).
T2 sequence (whole entry): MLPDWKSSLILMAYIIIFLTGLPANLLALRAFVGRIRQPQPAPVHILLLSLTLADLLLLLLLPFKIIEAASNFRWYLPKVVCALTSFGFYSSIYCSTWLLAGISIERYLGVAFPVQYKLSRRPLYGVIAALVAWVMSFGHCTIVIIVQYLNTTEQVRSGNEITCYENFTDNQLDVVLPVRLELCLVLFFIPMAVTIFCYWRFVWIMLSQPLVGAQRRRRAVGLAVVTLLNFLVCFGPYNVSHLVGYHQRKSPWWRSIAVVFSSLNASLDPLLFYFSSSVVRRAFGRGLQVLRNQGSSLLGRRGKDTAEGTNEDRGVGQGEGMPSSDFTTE
The experiment in a line: Agonist activity at FFA2. The class given is functional.

In assay [3] the target is T3, Free fatty acid receptor 3 (Homo sapiens) (UniProt O14843).
T3 sequence (whole entry): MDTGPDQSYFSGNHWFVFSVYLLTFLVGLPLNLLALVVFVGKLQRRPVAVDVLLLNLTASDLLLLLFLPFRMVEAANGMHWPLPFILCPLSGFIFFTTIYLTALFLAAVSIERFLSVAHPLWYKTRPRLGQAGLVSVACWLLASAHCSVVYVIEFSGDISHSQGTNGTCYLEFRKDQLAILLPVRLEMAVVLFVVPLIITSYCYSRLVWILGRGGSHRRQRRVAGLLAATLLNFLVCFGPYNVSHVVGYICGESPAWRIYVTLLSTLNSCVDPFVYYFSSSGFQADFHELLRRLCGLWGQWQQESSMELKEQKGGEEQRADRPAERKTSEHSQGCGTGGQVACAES
The experiment in a line: Agonist activity at FFA3. The class given is functional.

The target in assay [4] is T1, Free fatty acid receptor 1. The experiment in a line: Agonist activity at human FFA1 expressed in human 1321N1 cells by calcium fluorescence assay. The class given is functional, cell-based.
Assay [5] deals with INS-1E. The experiment in a line: Enhancement of glucose-stimulated insulin secretion in rat INS-1E cells at 3 uM. Type of assay: functional, cell-based.
Assay [6] relates to INS-1E. The experiment in a line: Enhancement of insulin secretion in rat INS-1E cells in presence of 12 mM glucose. The class given is functional, cell-based.
For assay [7], the system named is INS-1E. Briefly: Enhancement of palmitate-stimulated insulin secretion in rat INS-1E cells at 10 uM. Type of assay: functional, cell-based.
The test system of assay [8] is INS-1E. The experiment in a line: Reduction of basal insulin secretion in rat INS-1E cells in presence of 2.8 mM glucose. Type of assay: functional, cell-based.
Assay [9] deals with Pancreatic islet. Briefly: Induction of glucose-stimulated insulin secretion in pancreatic islets cells isolated from wild type mouse. The class given is functional, cell-based.
Assay [10] has as its system Pancreatic islet. Briefly: Induction of glucose-stimulated insulin secretion in pancreatic islets cells isolated from FFA1-deficient mouse. Type of assay: functional, cell-based.
Assay [11] concerns the target T1, Free fatty acid receptor 1. Briefly: Agonist activity at human FFA1 expressed in human 1321N1 cells up to 31.6 uM by calcium fluorescence assay. Type of assay: functional, cell-based.

For the compound `Cc1cccc(C#Cc2ccc(CCC(=O)O)cc2)c1`, in assay [1], the Activity was 109%. For the same compound, the result in assay [2] and in [3] was inactive.
With `Cc1ccccc1C#Cc1ccc(CCC(=O)O)cc1`, the EC50 in [4] (read-out: EC50) was 0.032 µM. In [1], the Activity came to 105%. The outcome (in assay [2]; in [3]; with Pancreatic islet [9]; in the assay with Pancreatic islet [10]) was inactive. In addition, the outcome with INS-1E [5], in the assay on INS-1E [6], with INS-1E [7] and in the assay on INS-1E [8] was Active.
Take `N#Cc1cccc(C#Cc2ccc(CCC(=O)O)cc2)c1`: in assay [1], the Activity amounted to 92%. For the same compound, the result in assay [2] and in [3] was inactive.
As for `O=Cc1cccc(C#Cc2ccc(CCC(=O)O)cc2)c1`, in assay [1], the Activity was 94%. In addition, the outcome in assay [2] and in assay [3] was inactive.
With `Cc1cccc(C#Cc2ccc(OCC(=O)O)cc2)c1`, the EC50 in [4] (read-out: pEC50 (converted)) was 0.513 µM. In assay [1], the Activity amounted to 113%. Besides, the outcome in [2] and in assay [3] was inactive.
As to `O=C(O)COc1ccc(C#Cc2ccc(O)cc2)cc1`, the result in assay [11], in assay [2] and in [3] was inactive.
Consider `C#Cc1cccc(C#Cc2ccc(CCC(=O)O)cc2)c1`, for which the Activity in assay [1] came to 100%. The result in [2] and in assay [3] was inactive.
Consider `O=C(O)CCc1ccc(C#Cc2cccc([N+](=O)[O-])c2)cc1`, for which the EC50 in assay [4] (read-out: pEC50 (converted)) is 0.0589 µM. In addition, the Activity in assay [1] was determined as 94%. The result in assay [2] and in assay [3] was inactive.
With `Cc1ccc(C#Cc2ccc(CCC(=O)O)cc2)cc1`, the EC50 in [4] (read-out: pEC50 (converted)) was 0.107 µM. Further, the Activity in assay [1] came to 99%. For the same compound, the outcome in assay [2] and in assay [3] was inactive.
Regarding `O=C(O)CCc1ccc(C#Cc2ccccc2)cc1`, the EC50 in [4] (read-out: EC50) was 0.096 µM. In addition, in assay [1], the Activity was found to be 106%. For the same compound, the result in assay [2] and in assay [3] was inactive.
With `O=C(O)CCc1ccc(C#Cc2cccc(C(F)(F)F)c2)cc1`, the Activity in assay [1] turned out to be 98%. The outcome in assay [2] and in [3] was inactive.
`O=C(O)CCc1ccc(C#Cc2cccc3ccccc23)cc1`: the EC50 in assay [4] (read-out: pEC50 (converted)) was 0.0851 µM. In addition, the Activity in [1] was 100%. The outcome in [2] and in [3] was inactive.
Regarding `O=C(O)COc1ccc(C#Cc2cccc(O)c2)cc1`, the EC50 in assay [4] (read-out: pEC50 (converted)) was 5.62 µM. In addition, in assay [1], the Activity was 86%. For the same compound, the result in [2] and in [3] was inactive.
With `Cc1ccccc1C#Cc1ccc(OCC(=O)O)cc1`, the EC50 in assay [4] (read-out: pEC50 (converted)) is 3.72 µM. The Activity in assay [1] worked out at 96%. Also, the outcome in assay [2] and in assay [3] was inactive.
As to `O=C(O)CCc1ccc(C#Cc2cccc(CO)c2)cc1`, the Activity in assay [1] stood at 103%. Further, the result in assay [2] and in assay [3] was inactive.
Consider `Cc1cc(C)cc(C#Cc2ccc(CCC(=O)O)cc2)c1`, for which the Activity in assay [1] worked out at 101%. Moreover, the outcome in [2] and in assay [3] was inactive.
Turning to `Cc1ccc(C#Cc2ccc(OCC(=O)O)cc2)cc1`, the result in assay [11], in assay [2] and in [3] was inactive.
As to `O=C(O)COc1ccc(C#Cc2ccccc2)cc1`, in assay [4] (read-out: pEC50 (converted)), the EC50 was 1.26 µM. In assay [1], the Activity was 104%. Besides, the result in assay [2] and in assay [3] was inactive.
As to `Cc1cccc(C#Cc2ccc(CCC(=O)O)cc2)c1C`, the Activity in assay [1] was 108%. Further, the outcome in assay [2] and in [3] was inactive.
For `O=C(O)COc1ccc(C#Cc2ccc(CO)cc2)cc1`, the result in [11], in [2] and in assay [3] was inactive.
As to `Nc1cccc(C#Cc2ccc(CCC(=O)O)cc2)c1`, in [1], the Activity came out at 96%. Besides, the outcome in assay [2] and in assay [3] was inactive.
